# Test results as given in publication PMC7693203 (Epilepsia, 2020).
# Assays:
# [1] = target: CYP2C19 (Homo sapiens, UniProt P33261)
# [2] = result in words; cited from earlier work
# [3] = steady-state CBD, healthy volunteers; result in words; cited from earlier work
# Chain of CYP2C19 (P33261 whole entry): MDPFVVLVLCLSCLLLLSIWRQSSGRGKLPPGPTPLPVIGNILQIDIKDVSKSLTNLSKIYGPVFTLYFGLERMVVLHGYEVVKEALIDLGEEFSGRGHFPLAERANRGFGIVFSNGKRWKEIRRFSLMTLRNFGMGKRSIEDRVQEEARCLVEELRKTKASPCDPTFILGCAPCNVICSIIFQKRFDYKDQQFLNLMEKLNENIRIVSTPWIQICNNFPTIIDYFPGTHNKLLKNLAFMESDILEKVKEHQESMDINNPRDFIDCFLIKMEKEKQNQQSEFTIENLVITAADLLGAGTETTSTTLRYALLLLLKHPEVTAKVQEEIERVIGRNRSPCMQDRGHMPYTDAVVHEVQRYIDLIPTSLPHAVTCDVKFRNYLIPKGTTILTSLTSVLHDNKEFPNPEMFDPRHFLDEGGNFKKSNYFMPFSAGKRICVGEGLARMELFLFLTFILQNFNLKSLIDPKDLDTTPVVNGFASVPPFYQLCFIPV
structure (smiles),measurement,setting,value
"C=C(C)[C@@H]1CCC(C)=C[C@H]1c1c(O)cc(CCCCC)cc1O [CBD, cannabidiol]",clearance with concomitant FLU,[1]; result in words,not affected
same,t ½ with concomitant FLU,[1]; result in words,not affected
same,increase in AUCtau with concomitant steady‐state FLU,[1]; single dose of CBD,21%
same,increase in C max with concomitant steady‐state FLU,[1]; single dose of CBD,24%
same,PPB when VPA and CBD are combined in vitro,[2],not affected
same,effect of concomitant STP on exposure,[3],no effect
same,effect of concomitant VPA on exposure,[3],did not affect
